# Measured values from patent US20100092526A1, “NANOEMULSION THERAPEUTIC COMPOSITIONS AND METHODS OF USING THE SAME” (NanoBio Corporation, priority 2008, published 2010).
# Like-named read-outs stand apart in the source and are kept apart here.
# Tests used:
# Acinetobacter baumannii [1] = test: MIC/MBC against clinical isolates (CLSI, alamar blue); conditions: Acinetobacter baumannii
# Burkholderia cepacia = test: MIC/MBC of nanoemulsions against gram-negative isolates (CLSI, alamar blue); format: cell-based; conditions: Burkholderia cepacia (n = 5), nanoemulsions in the presence of 5 mM EDTA
# Klebsiella pneumoniae = test: as above; format: cell-based; conditions: Klebsiella pneumoniae (n = 5)
# [2] = tested on: P. aeruginosa, B. cenocepacia, A. baumannii and S. maltophilia; test: MIC/MBC against all strains of Example 8; conditions: read-out: MBC90, against all strains
# Acinetobacter baumannii [3] = test: MIC/MBC of nanoemulsions against gram-negative isolates (CLSI, alamar blue); format: cell-based; conditions: Acinetobacter baumannii (n = 5)
# Escherichia coli = test: as above; format: cell-based; conditions: Escherichia coli (n = 5)
# Burkholderia cenocepacia = test: MIC/MBC against CF isolates (CLSI, alamar blue); conditions: Burkholderia cenocepacia
# Pseudomonas aeruginosa [4] = test: MIC/MBC of nanoemulsions against gram-negative isolates (CLSI, alamar blue); format: cell-based; conditions: Pseudomonas aeruginosa (n = 5)
# Pseudomonas aeruginosa [5] = test: MIC/MBC against CF isolates (CLSI, alamar blue); conditions: for MBC / MIC: Pseudomonas aeruginosa
# Proteus mirabilis = test: MIC/MBC of nanoemulsions against gram-negative isolates (CLSI, alamar blue); format: cell-based; conditions: Proteus mirabilis (n = 5)
# [6] = tested on: Stenotrophomonas maltophilia; test: as above; format: cell-based; conditions: Stenotrophomonas maltophilia (n = 5); nanoemulsions in the presence of 5 mM EDTA
# [7] = nanoemulsions in the presence of 5 mM EDTA
smiles,measurement,setting,value
C[C@@H](O)[C@H]1C(=O)N2C(C(=O)O)=C(SCCN=CN)C[C@H]12 [Imipenem],MIC,Acinetobacter baumannii [1],0.125 mg/L
same,MBC,Acinetobacter baumannii [1]; Acinetobacter isolate NB31,1 mg/L
same,MIC,Acinetobacter baumannii [1]; Acinetobacter isolate NB31,1 mg/L
same,MBC,Acinetobacter baumannii [1]; Acinetobacter isolate NB35,8 mg/L
same,MIC,Acinetobacter baumannii [1]; Acinetobacter isolate NB35,8 mg/L
same,MBC,Acinetobacter baumannii [1]; Acinetobacter isolate NB36,0.125 mg/L
same,MBC,Acinetobacter baumannii [1]; Acinetobacter isolate NB37,8 mg/L
same,MBC,Acinetobacter baumannii [1]; Acinetobacter isolate NB39,2 mg/L
same,MIC,Acinetobacter baumannii [1]; Acinetobacter isolate NB39,2 mg/L
same,MIC,Acinetobacter baumannii [1]; Acinetobacter isolate NB40,2 mg/L
same,MBC,"Acinetobacter baumannii [1]; read-out: MBC 50, 10 Acinetobacter isolates",8 mg/L
same,MIC50,Burkholderia cepacia,8 mg/L
same,MIC Range,Burkholderia cepacia; in µg/mL,4-8
same,% resistant,Klebsiella pneumoniae,0.0%
same,% susceptible,Klebsiella pneumoniae,100.0%
same,MIC50,Klebsiella pneumoniae; [7],0.25 mg/L
same,MIC Range,Klebsiella pneumoniae; [7],<=0.12-0.25 ^
same,MBC,[2],> 32 mg/L
same,% resistant,Acinetobacter baumannii [3],20.0%
same,% susceptible,Acinetobacter baumannii [3],80.0%
same,MIC50,Acinetobacter baumannii [3]; [7],≤ 0.12 mg/L
same,% resistant,Escherichia coli,0.0%
same,% susceptible,Escherichia coli,100.0%
same,MIC50,Escherichia coli; [7],0.25 mg/L
same,MIC Range,Escherichia coli; [7],<=0.12-0.5 ^
same,MBC,Burkholderia cenocepacia; CF Burkholderia isolate NB28b,0.5 mg/L
same,MIC,Burkholderia cenocepacia; CF Burkholderia isolate NB28b,0.5 mg/L
same,MIC,Burkholderia cenocepacia; CF Burkholderia isolate NB29,8 mg/L
same,% resistant,Pseudomonas aeruginosa [4],20.0%
same,% susceptible,Pseudomonas aeruginosa [4],80.0%
same,MIC50,Pseudomonas aeruginosa [4]; [7],1 mg/L
same,MBC 90,Pseudomonas aeruginosa [5]; 20 CF Pseudomonas isolates,>32 mg/L
same,MBC,Pseudomonas aeruginosa [5]; CF Pseudomonas isolate NB1,8 mg/L
same,MIC,Pseudomonas aeruginosa [5]; CF Pseudomonas isolate NB1,1 mg/L
same,MBC,Pseudomonas aeruginosa [5]; CF Pseudomonas isolate NB2,2 mg/L
same,MIC,Pseudomonas aeruginosa [5]; CF Pseudomonas isolate NB2,2 mg/L
same,MIC,Pseudomonas aeruginosa [5]; CF Pseudomonas isolate NB3,2 mg/L
same,MBC,Pseudomonas aeruginosa [5]; CF Pseudomonas isolate NB4,8 mg/L
same,MIC,Pseudomonas aeruginosa [5]; CF Pseudomonas isolate NB5,2 mg/L
same,MBC,Pseudomonas aeruginosa [5]; CF Pseudomonas isolate NB6,2 mg/L
same,MIC,Pseudomonas aeruginosa [5]; CF Pseudomonas isolate NB6,1 mg/L
same,MBC,Pseudomonas aeruginosa [5]; CF Pseudomonas isolate NB10,8 mg/L
same,MBC,Pseudomonas aeruginosa [5]; CF Pseudomonas isolate NB11,8 mg/L
same,MIC,Pseudomonas aeruginosa [5]; CF Pseudomonas isolate NB11,2 mg/L
same,MIC,Pseudomonas aeruginosa [5]; CF Pseudomonas isolate NB13,8 mg/L
same,MIC,Pseudomonas aeruginosa [5]; CF Pseudomonas isolate NB15,8 mg/L
same,MIC,Pseudomonas aeruginosa [5]; CF Pseudomonas isolate NB16,8 mg/L
same,MIC,Pseudomonas aeruginosa [5]; CF Pseudomonas isolate NB20,2 mg/L
same,% resistant,Proteus mirabilis,0.0%
same,% susceptible,Proteus mirabilis,100.0%
same,MIC50,Proteus mirabilis; [7],1 mg/L
same,MIC Range,Proteus mirabilis; [7],<=0.12-2 ^
same,MIC50,[6],> 8 mg/L
